The test system of test [1] is telo22 (DNA, G4) AGGGTTAGGGTTAGGGTTAGGG
Kind of test: CD titration. To be noted: Na+ (100 mM sodium phosphate); pH 7.4; conformational change similar to telo23.

Test [2] relates to telo23 (DNA, G4) TAGGGTTAGGGTTAGGGTTAGGG
Nature of the test: 1H NMR. To be noted: Na+ (25 mM sodium phosphate, 70 mM NaCl); pH 7.0, 298 K, 175 µM DNA, 2 equivalents ligand; imino signals lost.

Test [3] has the same test system. Kind of test: CD titration. The conditions noted are these: pH 7.4, 20 °C, 4.22 µM DNA.
The subject of test [4] is F10T (DNA, hairpin, hexaethylene glycol (HEG) linker between 10 and 11) TATAGCTATATATAGCTATA
Nature of the test: FRET melting. To be noted: 10 mM KCl, 90 mM LiCl; 1 μM ligand, 200 nM DNA, 10 mM Li cacodylate; ΔT1/2 used as ΔTm.

Test [5] concerns F21T (DNA, G4) GGGTTAGGGTTAGGGTTAGGG
Kind of test: FRET melting. To be noted: 1 μM ligand, 200 nM DNA, 10 mM Li cacodylate, ΔT1/2 used as ΔTm.

In test [6] the test system is FmycT (DNA, G4) TTGAGGGTGGGTAGGGTGGGTAA
Kind of test: FRET melting. The conditions noted are these: 1 mM KCl, 99 mM LiCl; 1 μM ligand, 200 nM DNA, 10 mM Li cacodylate; ΔT1/2 used as ΔTm.

As for `C[n+]1ccc(-c2ccc3c(c2)/C(=C2\CCc4ccc(-c5cc[n+](C)cc5)cc42)CC3)cc1`, the binding entry in test [1] was “yes”; in test [2] it was “yes”; in test [3] (K+ (100 mM potassium phosphate), no conformational change, ICD seen), “yes”; in test [3] (Na+ (100 mM sodium phosphate), ligand unfolds the G4), “yes”. Further, the ΔTm (usually the shift of the melting midpoint relative to a reference) in test [4] amounted to 0.8±0.2 °C; in test [5] (10 mM KCl, 90 mM LiCl), 21.4±0.3 °C; in test [5] (100 mM NaCl), 11.8±0.6 °C; in test [6], 15.8±0.8 °C.

Regarding `C[n+]1ccc(-c2ccc3c(c2)/C(=C2/CCc4ccc(-c5cc[n+](C)cc5)cc42)CC3)cc1`, the ΔTm in test [4] is 0.1 ± 0.1 °C; in test [5] (10 mM KCl, 90 mM LiCl), 9.7 ± 0.5 °C; in test [5] (100 mM NaCl), 5.4 ± 1.0 °C; in test [6], 5.1 ± 1.4 °C.
